According to the NIST ThermoML archive (doi:10.1021/je900888e):
Numbers after ± are expanded uncertainties.

Assay: mn = molality of the nth substance listed, in mol/kg
Conditions: 101 kPa, Liquid; for speed of sound: Pulse-echo method

CCCC[P+](CCCC)(CCCC)CCCC.[Br-] [tetrabutylphosphonium bromide] + CCCO
mass density (288.15 K, m1 = 0.008229): 808.063 ± 0.23 kg/m3 | mass density (288.15 K, m1 = 0.01006): 808.2 ± 0.23 kg/m3 | mass density (288.15 K, m1 = 0.01526): 808.58 ± 0.23 kg/m3 | mass density (288.15 K, m1 = 0.02043): 808.96 ± 0.23 kg/m3 | mass density (288.15 K, m1 = 0.02524): 809.318 ± 0.23 kg/m3 | mass density (288.15 K, m1 = 0.03024): 809.68 ± 0.23 kg/m3 | mass density (288.15 K, m1 = 0.03749): 810.212 ± 0.23 kg/m3 | mass density (288.15 K, m1 = 0.05294): 811.322 ± 0.23 kg/m3 | mass density (288.15 K, m1 = 0.06813): 812.403 ± 0.23 kg/m3 | mass density (288.15 K, m1 = 0.0867): 813.75 ± 0.23 kg/m3 | mass density (288.15 K, m1 = 0.1076): 815.247 ± 0.23 kg/m3 | mass density (288.15 K, m1 = 0.1375): 817.423 ± 0.23 kg/m3 | mass density (288.15 K, m1 = 0.1743): 820.087 ± 0.23 kg/m3 | mass density (288.15 K, m1 = 0.2115): 822.781 ± 0.23 kg/m3 | mass density (288.15 K, m1 = 0.2447): 825.209 ± 0.23 kg/m3 | mass density (288.15 K, m1 = 0.2873): 828.335 ± 0.23 kg/m3 | mass density (288.15 K, m1 = 0.3248): 831.089 ± 0.23 kg/m3 | mass density (293.15 K, m1 = 0.008229): 804.08 ± 0.23 kg/m3 | mass density (293.15 K, m1 = 0.01006): 804.217 ± 0.23 kg/m3 | mass density (293.15 K, m1 = 0.01526): 804.599 ± 0.23 kg/m3 | mass density (293.15 K, m1 = 0.02043): 804.977 ± 0.23 kg/m3 | mass density (293.15 K, m1 = 0.02524): 805.33 ± 0.23 kg/m3 | mass density (293.15 K, m1 = 0.03024): 805.698 ± 0.23 kg/m3 | mass density (293.15 K, m1 = 0.03749): 806.23 ± 0.23 kg/m3 | mass density (293.15 K, m1 = 0.05294): 807.354 ± 0.23 kg/m3 | mass density (293.15 K, m1 = 0.06813): 808.443 ± 0.23 kg/m3 | mass density (293.15 K, m1 = 0.0867): 809.793 ± 0.23 kg/m3 | mass density (293.15 K, m1 = 0.1076): 811.298 ± 0.23 kg/m3 | mass density (293.15 K, m1 = 0.1375): 813.485 ± 0.23 kg/m3 | mass density (293.15 K, m1 = 0.1743): 816.159 ± 0.23 kg/m3 | mass density (293.15 K, m1 = 0.2115): 818.864 ± 0.23 kg/m3 | mass density (293.15 K, m1 = 0.2447): 821.3 ± 0.23 kg/m3 | mass density (293.15 K, m1 = 0.2873): 824.437 ± 0.23 kg/m3 | mass density (293.15 K, m1 = 0.3248): 827.205 ± 0.23 kg/m3 | speed of sound (298.15 K, m1 = 0.01006): 1205.6 ± 0.82 m/s | speed of sound (298.15 K, m1 = 0.02524): 1206.6 ± 0.83 m/s | speed of sound (298.15 K, m1 = 0.05294): 1208.6 ± 0.83 m/s | speed of sound (298.15 K, m1 = 0.06813): 1209.5 ± 0.83 m/s | speed of sound (298.15 K, m1 = 0.0867): 1210.8 ± 0.84 m/s | speed of sound (298.15 K, m1 = 0.1076): 1212.2 ± 0.84 m/s | speed of sound (298.15 K, m1 = 0.1375): 1213.9 ± 0.85 m/s | speed of sound (298.15 K, m1 = 0.1743): 1216.2 ± 0.86 m/s | speed of sound (298.15 K, m1 = 0.2115): 1218.4 ± 0.86 m/s | speed of sound (298.15 K, m1 = 0.2447): 1220.7 ± 0.87 m/s | speed of sound (298.15 K, m1 = 0.2873): 1223.5 ± 0.88 m/s | speed of sound (298.15 K, m1 = 0.3248): 1225.7 ± 0.89 m/s | mass density (298.15 K, m1 = 0.008229): 800.075 ± 0.24 kg/m3 | mass density (298.15 K, m1 = 0.01006): 800.212 ± 0.24 kg/m3 | mass density (298.15 K, m1 = 0.01526): 800.599 ± 0.23 kg/m3 | mass density (298.15 K, m1 = 0.02043): 800.981 ± 0.23 kg/m3 | mass density (298.15 K, m1 = 0.02524): 801.34 ± 0.23 kg/m3 | mass density (298.15 K, m1 = 0.03024): 801.705 ± 0.23 kg/m3 | mass density (298.15 K, m1 = 0.03749): 802.24 ± 0.23 kg/m3 | mass density (298.15 K, m1 = 0.05294): 803.369 ± 0.23 kg/m3 | mass density (298.15 K, m1 = 0.06813): 804.463 ± 0.23 kg/m3 | mass density (298.15 K, m1 = 0.0867): 805.818 ± 0.23 kg/m3 | mass density (298.15 K, m1 = 0.1076): 807.331 ± 0.23 kg/m3 | mass density (298.15 K, m1 = 0.1375): 809.531 ± 0.23 kg/m3 | mass density (298.15 K, m1 = 0.1743): 812.214 ± 0.23 kg/m3 | mass density (298.15 K, m1 = 0.2115): 814.928 ± 0.23 kg/m3 | mass density (298.15 K, m1 = 0.2447): 817.377 ± 0.23 kg/m3 | mass density (298.15 K, m1 = 0.2873): 820.523 ± 0.23 kg/m3 | mass density (298.15 K, m1 = 0.3248): 823.305 ± 0.23 kg/m3 | mass density (303.15 K, m1 = 0.008229): 796.04 ± 0.24 kg/m3 | mass density (303.15 K, m1 = 0.01006): 796.179 ± 0.24 kg/m3 | mass density (303.15 K, m1 = 0.01526): 796.569 ± 0.24 kg/m3 | mass density (303.15 K, m1 = 0.02043): 796.957 ± 0.24 kg/m3 | mass density (303.15 K, m1 = 0.02524): 797.315 ± 0.24 kg/m3 | mass density (303.15 K, m1 = 0.03024): 797.688 ± 0.24 kg/m3 | mass density (303.15 K, m1 = 0.03749): 798.225 ± 0.24 kg/m3 | mass density (303.15 K, m1 = 0.05294): 799.354 ± 0.24 kg/m3 | mass density (303.15 K, m1 = 0.06813): 800.458 ± 0.24 kg/m3 | mass density (303.15 K, m1 = 0.0867): 801.819 ± 0.24 kg/m3 | mass density (303.15 K, m1 = 0.1076): 803.338 ± 0.24 kg/m3 | mass density (303.15 K, m1 = 0.1375): 805.541 ± 0.24 kg/m3 | mass density (303.15 K, m1 = 0.1743): 808.243 ± 0.23 kg/m3 | mass density (303.15 K, m1 = 0.2115): 810.97 ± 0.23 kg/m3 | mass density (303.15 K, m1 = 0.2447): 813.431 ± 0.23 kg/m3 | mass density (303.15 K, m1 = 0.2873): 816.588 ± 0.23 kg/m3 | mass density (303.15 K, m1 = 0.3248): 819.382 ± 0.23 kg/m3 | mass density (308.15 K, m1 = 0.008229): 791.98 ± 0.24 kg/m3 | mass density (308.15 K, m1 = 0.01006): 792.12 ± 0.24 kg/m3 | mass density (308.15 K, m1 = 0.01526): 792.51 ± 0.24 kg/m3 | mass density (308.15 K, m1 = 0.02043): 792.896 ± 0.24 kg/m3 | mass density (308.15 K, m1 = 0.02524): 793.259 ± 0.24 kg/m3 | mass density (308.15 K, m1 = 0.03024): 793.626 ± 0.24 kg/m3 | mass density (308.15 K, m1 = 0.03749): 794.174 ± 0.24 kg/m3 | mass density (308.15 K, m1 = 0.05294): 795.307 ± 0.24 kg/m3 | mass density (308.15 K, m1 = 0.06813): 796.411 ± 0.24 kg/m3 | mass density (308.15 K, m1 = 0.0867): 797.792 ± 0.24 kg/m3 | mass density (308.15 K, m1 = 0.1076): 799.313 ± 0.24 kg/m3 | mass density (308.15 K, m1 = 0.1375): 801.524 ± 0.24 kg/m3 | mass density (308.15 K, m1 = 0.1743): 804.242 ± 0.24 kg/m3 | mass density (308.15 K, m1 = 0.2115): 806.982 ± 0.24 kg/m3 | mass density (308.15 K, m1 = 0.2447): 809.45 ± 0.24 kg/m3 | mass density (308.15 K, m1 = 0.2873): 812.63 ± 0.24 kg/m3 | mass density (308.15 K, m1 = 0.3248): 815.432 ± 0.24 kg/m3 | mass density (313.15 K, m1 = 0.008229): 787.867 ± 0.25 kg/m3 | mass density (313.15 K, m1 = 0.01006): 788.009 ± 0.25 kg/m3 | mass density (313.15 K, m1 = 0.01526): 788.405 ± 0.24 kg/m3 | mass density (313.15 K, m1 = 0.02043): 788.788 ± 0.24 kg/m3 | mass density (313.15 K, m1 = 0.02524): 789.158 ± 0.24 kg/m3 | mass density (313.15 K, m1 = 0.03024): 789.53 ± 0.24 kg/m3 | mass density (313.15 K, m1 = 0.03749): 790.075 ± 0.24 kg/m3 | mass density (313.15 K, m1 = 0.05294): 791.221 ± 0.24 kg/m3 | mass density (313.15 K, m1 = 0.06813): 792.34 ± 0.24 kg/m3 | mass density (313.15 K, m1 = 0.0867): 793.72 ± 0.24 kg/m3 | mass density (313.15 K, m1 = 0.1076): 795.248 ± 0.24 kg/m3 | mass density (313.15 K, m1 = 0.1375): 797.479 ± 0.24 kg/m3 | mass density (313.15 K, m1 = 0.1743): 800.208 ± 0.24 kg/m3 | mass density (313.15 K, m1 = 0.2115): 802.96 ± 0.24 kg/m3 | mass density (313.15 K, m1 = 0.2447): 805.445 ± 0.24 kg/m3 | mass density (313.15 K, m1 = 0.2873): 808.638 ± 0.24 kg/m3 | mass density (313.15 K, m1 = 0.3248): 811.451 ± 0.24 kg/m3 | mass density (323.15 K, m1 = 0.008229): 779.506 ± 0.25 kg/m3 | mass density (323.15 K, m1 = 0.01006): 779.649 ± 0.25 kg/m3 | mass density (323.15 K, m1 = 0.01526): 780.051 ± 0.25 kg/m3 | mass density (323.15 K, m1 = 0.02043): 780.443 ± 0.25 kg/m3 | mass density (323.15 K, m1 = 0.02524): 780.808 ± 0.25 kg/m3 | mass density (323.15 K, m1 = 0.03024): 781.191 ± 0.25 kg/m3 | mass density (323.15 K, m1 = 0.03749): 781.741 ± 0.25 kg/m3 | mass density (323.15 K, m1 = 0.05294): 782.905 ± 0.25 kg/m3 | mass density (323.15 K, m1 = 0.06813): 784.043 ± 0.25 kg/m3 | mass density (323.15 K, m1 = 0.0867): 785.44 ± 0.25 kg/m3 | mass density (323.15 K, m1 = 0.1076): 786.995 ± 0.25 kg/m3 | mass density (323.15 K, m1 = 0.1375): 789.244 ± 0.25 kg/m3 | mass density (323.15 K, m1 = 0.1743): 792.006 ± 0.25 kg/m3 | mass density (323.15 K, m1 = 0.2115): 794.787 ± 0.25 kg/m3 | mass density (323.15 K, m1 = 0.2447): 797.302 ± 0.25 kg/m3 | mass density (323.15 K, m1 = 0.2873): 800.526 ± 0.25 kg/m3 | mass density (323.15 K, m1 = 0.3248): 803.369 ± 0.25 kg/m3
